#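 How tested: cells in 96-well plates exposed to compound for 48 hours at five concentrations. TGI is the concentration that stops growth completely.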
# Columns and labels:
# Test in all cases: NCI anticancer screen, dose series, 48 h
# [1] = system: SK-OV-3 ovarian
# [2] = system: MDA-N
# [3] = system: ACHN renal
# [4] = system: MOLT-4 leukemia
# [5] = system: SK-MEL-2 melanoma
# [6] = system: CAKI-1 renal
# [7] = system: A549 NSCLC
# [8] = system: K-562 leukemia
# [9] = system: MALME-3M melanoma
# [10] = system: RXF 393 renal
# [11] = system: UACC-257 melanoma
# [12] = system: KM12 colon
# [13] = system: HOP-62 NSCLC
# [14] = system: SW-620 colon
# [15] = system: COLO 205 colon
# [16] = system: HCT-15 colon
# [17] = system: HCC-2998 colon
# [18] = system: NCI-H522 lung
# [19] = system: M14 melanoma
# [20] = system: SR leukemia
Compound,TGI [1],TGI [2],TGI [3],TGI [4],TGI [5],TGI [6],TGI [7],TGI [8],TGI [9],TGI [10],TGI [11],TGI [12],TGI [13],TGI [14],TGI [15],TGI [16],TGI [17],TGI [18],TGI [19],TGI [20]
CCOC(=O)C(Cc1ccc(OC(=O)c2ccc(OC)cc2OC)cc1)NC(=O)C(F)(F)F (stereo not given),> 100 µM,49.3 µM,30.9 µM,> 100 µM,57.5 µM,75.8 µM,> 100 µM,> 100 µM,59.9 µM,36.2 µM,29.4 µM,72.8 µM,44.9 µM,> 100 µM,43.9 µM,43.3 µM,31.2 µM,40.9 µM,33.8 µM,–
C#CCn1c(=O)c(C)cn(/C(=C/C(=O)OCC)C(=O)OCC)c1=O,> 63.1 µM,43.8 µM,3.64 µM,30.6 µM,27.2 µM,3.18 µM,32.4 µM,> 69.4 µM,4.07 µM,2.01 µM,28.8 µM,32 µM,30.5 µM,4.16 µM,> 22.7 µM,4.07 µM,32.2 µM,–,14 µM,> 100 µM
CCOC(=O)CC/C(C)=N\n1c(Cc2ccc(Cl)cc2)n[nH]c1=O,–,> 100 µM,> 100 µM,> 100 µM,> 100 µM,> 100 µM,> 100 µM,> 100 µM,> 100 µM,> 100 µM,> 100 µM,> 100 µM,> 100 µM,> 100 µM,–,> 100 µM,> 100 µM,> 100 µM,> 100 µM,> 100 µM
CC(=O)OC[C@@]12CC[C@H]3C(C)(C)CCC[C@]3(C)[C@H]1C[C@@H](C1=CC(=O)O[C@H]1O)O2,–,5.53 µM,5.12 µM,6.23 µM,4.37 µM,5.21 µM,20.4 µM,3.56 µM,–,–,9.26 µM,35.8 µM,23 µM,19.9 µM,10.4 µM,5.15 µM,3.12 µM,8.03 µM,7.65 µM,4.08 µM
Cc1cc(C)c2c(=O)n(CN3CCN(c4ccccc4)CC3)sc2n1,> 100 µM,60.4 µM,35.2 µM,58.7 µM,33.9 µM,39.4 µM,> 100 µM,> 100 µM,> 100 µM,25.7 µM,> 100 µM,> 100 µM,> 100 µM,> 100 µM,41.3 µM,50.7 µM,> 100 µM,32.5 µM,76.6 µM,–
C/C(=N\N=C(\N)OB(F)F)c1ccccn1,–,> 100 µM,> 100 µM,–,> 100 µM,> 100 µM,> 100 µM,> 100 µM,> 100 µM,42.6 µM,> 100 µM,> 100 µM,> 100 µM,> 100 µM,> 100 µM,> 100 µM,> 100 µM,> 100 µM,> 100 µM,> 100 µM

# — PubChem BioAssay (NCI)
